Values quoted from earlier work, collected in US8986935B2, “Methods for treating spinal muscular atrophy” (PTC Therapeutics, Inc., priority 2008, dated 2015).

Test system: SMN protein

For CC[C@@]1(O)C[C@H](O[C@H]2C[C@H](N(C)C)[C@H](O[C@H]3C[C@H](O)[C@H](O[C@H]4CCC(=O)[C@H](C)O4)[C@H](C)O3)[C@H](C)O2)c2c(cc3c(c2O)C(=O)c2c(O)cccc2C3=O)[C@H]1C(=O)OC [aclarubicin], the “SMN protein in cell culture” value is given as “increase SMN protein”.
